In paper PMC5442318, “Hundreds of dual-stage antimalarial molecules discovered by a functional gametocyte screen” (Nature Communications, 2017):
Like-named read-outs stand apart in the source and are kept apart here.

Columns and labels:
HepG2 cells = assay: HepG2 cytotoxicity assay; assay type: cell-based; conditions: mean
Method in brief: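 Steps: equilibrate plates and detection reagent at room temperature (30 min); dispense CellTiter-Glo; allow 10 min at room temperature; record luminescence.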

[1] = system: P. falciparum asexual blood stages; conditions: cited from earlier work; for IC50: read-out: Pf Asexual blood stages XC50
[2] = system: P. falciparum stages IV–V gametocytes; assay: Gametocytocidal ATP-depletion assay (gametocyte ATP bioluminescence); assay type: cell-based, Plasmodium falciparum
Method in brief: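 Purified stage IV–V gametocytes (12,500/well) incubated with compound for 48 h at 37 °C under 3% O2/5% CO2. ATP measured by BacTiter-Glo luminescence as a viability surrogate; hits tested at 2 μM single concentration.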

[3] = system: P. falciparum female gametes; assay: Pf FGAA with compounds added 30 min after triggering gametocyte activation (gamete-targeting); assay type: cell-based, Plasmodium falciparum NF54; conditions: 0h incubation time
[4] = system: P. falciparum stage V female gametocytes; assay: P. falciparum female gametocyte activation assay (Pf FGAA), 24 h or 48 h preincubation, Pfs25 expression readout; assay type: cell-based, Plasmodium falciparum NF54; conditions: for Pf FGAA classification: SLOW / FAST / GAMETE from activity at 48h, 24h, 0h incubation
Method in brief: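 Purified stage V gametocytes from P. falciparum NF54 gametocyte cultures were exposed to compounds for 24 h or 48 h at 37 °C under 3% O2/5% CO2, then activated by temperature drop plus xanthurenic acid. Activated females were stained with Cy3-anti-Pfs25 (0.5 μg ml^−1) for 24 h at 26 °C and counted by high-content imaging; pIC50 by nonlinear regression.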

[5] = Artificial membrane permeability assay (AMPA); assay type: in vitro ADME; conditions: 10 μM, pH 7.05, 3 h
Method: It is a 96-well plate-based assay that measures the speed of permeation of a compound (at 10 μM concentration) through a phospholipid membrane, consisting in 1.8% egg L-a-phosphatidylcholine (830051, Avanti Polar Lipids) and 1% cholesterol (C8667, Sigma) dissolved in n-decane (D0011, TCI American). Phosphate buffer (50 mM Na2HPO4 with 0.5% 2-hydroxypropyl-b-cyclodextrin), pH 7.05, is added to the top and bottom of the plate (S5EJ046I08, MilliPore Corp.). The lipids are allowed to form bilayers across the small holes in the filter and compound concentration is measured 3 h later in both donor and the acceptor compartments by HPLC (Agilent 1100 LC). Permeability (P) (nm s^−1) is calculated using the following formulas:
where X=VD/VR; CR and CD are final concentrations in receiver and donor side, respectively; VR and VD are volumes in receiver and donor compartment, respectively; A is the area (cm^2) and t is the incubation time (s). The considered cut-off values are as follows: High: P>200 nm s^−1; Medium: 10 nm s^−1<P<200 nm s^−1; Low: P<10 nm s^−1.

[6] = system: Plasmodium berghei asexual blood stages; assay: In vivo antimalarial therapeutic efficacy, P. berghei murine model; design: species or system CD1 mice
Method: Two out of the six compounds progressed to SMFA, TCMDC-123767 (cluster 30) and TCMDC-141154 (cluster 4), were evaluated in vivo in the Plasmodium berghei murine model. Selection criteria was based on the compound potencies in both asexual stages and gametocytes in the Pf FGAA, as well as on their transmission-blocking activity observed in the SMFA (Table 1). Owing to compound availability, TCMDC-141154 had to be replaced by a close analogue from cluster 4: TCMDC-140549 (Supplementary Data 3). Compounds were tested at 50 mg kg^−1 single dose 2-day oral treatment and efficacy was measured as a reduction of asexual blood stages parasitaemia greater than 40% compared with the vehicle-treated mice.
Pathogen-free CD1 mice (Hsd:ICR) were obtained from Harlan Interfauna Iberica (Barcelona, Spain). Eight weeks old female CD-1 mice were infected intravenously with 10^7 infected erythrocytes (day 0). Dosing solutions were prepared in water containing 5% DMSO/20% Captisol, at a target dose of 50 mg kg^−1. Mice received two oral doses once a day according to their body weight (20 ml kg^−1) starting at day 2 after infection. Control mice received the same treatment schedule with the vehicle used for the compound preparation. Samples from mice peripheral blood were taken before starting treatment and 24 h after finishing the dosing, to measure parasitaemia by flow cytometry, using the YOYO-1 staining, to assess the reduction of parasitaemia compared with the vehicle-treated mice.

[7] = TCAMS data, ref 1 (Gamo et al., 2010)
[8] = TCAMS data, ref 1 (Gamo, F. J. et al., Nature 465, 305-310, 2010)
[9] = 24h incubation time, read-out: Pf FGAA IC50 (µM) 24h
[10] = mean, read-out: Gametocytes mean Pf FGAA IC50
[11] = TCAMS asexual blood stage data, ref 1 (Gamo, F. J. et al., Nature 465, 305-310, 2010)
[12] = mean, P. falciparum female gametocyte activation assay, read-out: Gametocytes mean Pf FGAA IC50

SMILES	HepG2 cells mean TOX50 (HepG2 cells)	IC50 [1, 7]	Pf Asexual stages XC50 [1, 8]	Gametocytes mean ATP inhibition at 2µM (%) [2]	IC50 [3]	IC50 [4, 9]	Pf FGAA classification [4]	IC50 [4, 10]	permeability through artificial membranes [5]	reduction of asexual blood stages parasitaemia (threshold 40% vs vehicle) ([6]; 50 mg kg^−1 single dose 2-day oral treatment, mice)	ED50 ([6]; single dose 2-day treatment, oral, P. berghei mice)	HepG2 cells mean TOX50 (HepG2 cells; HepG2 cells)	IC50 [1, 11]	Gametocytes mean ATP inhibition at 2µM [2]	IC50 [4, 12]
CC(=O)Nc1ccc2[nH]cc(C3CCN(CC4CCC(NC(=O)/C=C/c5ccc(Cl)c(Cl)c5)CC4)CC3)c2n1 (stereo not shown) [TCMDC-140114]	13.49 µM	260 nM	260 nM	-7.40%	> 20 µM	15.5 µM	SLOW	1.74 µM							
CCN(CC)CCN(Cc1ccc(-c2ccc(Cl)cc2)cc1)C(=O)Cn1cc(CN(C)C)c(=O)nc1SCc1ccc(F)cc1 [TCMDC-140406]	6.61 µM	750 nM	750 nM	-10.76%	> 20 µM	9.4 µM	SLOW	1.38 µM							
CN1CCN(CCCNCc2ccccc2-c2cccc(CNCc3ccc4c(c3)OCO4)c2)CC1.O=C(O)C(F)(F)F [TCMDC-140476]	1.51 µM	790 nM	1070 nM	-1.87%	> 20 µM	5.7 µM	SLOW	1.64 µM							
CC(C)(C)CNCC(C)(C)c1nc(-c2ccc(Cl)c(O)c2)c(-c2ccncc2)[nH]1.Cl [TCMDC-140549]	11.63 µM	600 nM	600 nM	-11.46%	0.51 µM	3.56 µM	GAMETE	1.01 µM	17 ×10⁻⁶ cm/s	not reduced above the threshold	> 50 mg/kg				
CC(C)(CN)c1nc(-c2ccc(Br)c(O)c2)c(-c2ccncc2)[nH]1.Cl [TCMDC-140680]	45.82 µM	960 nM	390 nM	-3.29%	0.49 µM	0.79 µM	GAMETE	0.84 µM							
N=C(N)Nc1nc(-c2ccc(NCc3ccc(CNc4cccc(-c5csc(NC(=N)N)n5)c4)cc3)cc2)cs1 [TCMDC-140699]	4.79 µM	310 nM	310 nM	23.62%	0.89 µM	0.14 µM	GAMETE	0.9 µM							
CN1CCC=C(C(=O)NCC(C)(C)c2nc(-c3ccc(Cl)c(O)c3)c(-c3ccncc3)[nH]2)C1.Cl [TCMDC-140700]	13.36 µM	1000 nM	1000 nM	-6.01%	1.61 µM	4.68 µM	GAMETE	1.91 µM							
CN(C)CCOc1ccc(NC(=O)NC(C)(C)c2nc(-c3ccc(Cl)c(O)c3)c(-c3ccncc3)[nH]2)cc1.Cl [TCMDC-140744]	14.30 µM	110 nM	110 nM	-0.87%	10.6 µM	0.23 µM	FAST	0.73 µM							
CNCC(C)(C)c1nc(-c2ccc(Cl)c(O)c2)c(-c2ccncc2)[nH]1.Cl [TCMDC-140762]	13.52 µM	740 nM	740 nM	-1.34%	0.61 µM	1.06 µM	GAMETE	0.88 µM							
CC(C)(CNC(=O)[C@@H]1CCCCN1)c1nc(-c2ccc(Cl)c(O)c2)c(-c2ccncc2)[nH]1.Cl [TCMDC-141079]			840 nM		2.06 µM	2.48 µM	GAMETE					38.91 µM	840 nM	-6.33%	1.58 µM
O=C(CCC1CCCC1)N(Cc1ccc(-c2ccc(CNCCc3ccccc3)cc2)cc1)C1CCCNC1.O=C(O)C(F)(F)F (stereo not shown) [TCMDC-141444]			1220 nM		15.3 µM	6.85 µM	SLOW					5.19 µM	1220 nM	26.17%	1.98 µM
CN1CCN(CCCNc2ncc3c(-c4ccc(NC(=O)Nc5cc(C(F)(F)F)ccc5F)c(F)c4)nn(C)c3n2)CC1.O=C(O)C(F)(F)F [TCMDC-141611]			860 nM		11.3 µM	11.1 µM	SLOW					4.90 µM	860 nM	-15.14%	0.87 µM
CCOc1ccc2c(=NN=Cc3cc(OC)c(OC)cc3OC)cc(C)[nH]c2c1 [TCMDC-142207]			170 nM		6.42 µM	4.97 µM	SLOW					12.17 µM	1000 nM	-8.55%	1.22 µM
CN(C)CCN1CCN(CCCN2c3ccccc3Sc3ccc(C(F)(F)F)cc32)CC1.Cl [TCMDC-142257]			760 nM		> 20 µM	1.58 µM	FAST					77.62 µM	760 nM	23.41%	5.25 µM
